Reference: PubChem BioAssay (NCI)
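1) Cells in 96-well plates. 2) Compound, 48 h, 5 concentrations. 3) Linear interpolation between surrounding doses. 4) Unreached endpoint = highest concentration. TGI: total growth inhibition.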

Legend:
Assay in all cases: NCI anticancer screen, dose series, 48 h
786-0 renal = test system: 786-0 renal
A549 NSCLC = test system: A549 NSCLC
ACHN renal = test system: ACHN renal
BT-549 breast = test system: BT-549 breast
CAKI-1 renal = test system: CAKI-1 renal
CCRF-CEM leukemia = test system: CCRF-CEM leukemia
COLO 205 colon = test system: COLO 205 colon
DU-145 prostate = test system: DU-145 prostate
EKVX NSCLC = test system: EKVX NSCLC
HCC-2998 colon = test system: HCC-2998 colon
HCT-116 colon = test system: HCT-116 colon
HCT-15 colon = test system: HCT-15 colon
HL-60(TB) leukemia = test system: HL-60(TB) leukemia
HOP-62 NSCLC = test system: HOP-62 NSCLC
HOP-92 NSCLC = test system: HOP-92 NSCLC
HS 578T breast = test system: HS 578T breast
HT29 colon = test system: HT29 colon
IGROV1 ovarian = test system: IGROV1 ovarian
K-562 leukemia = test system: K-562 leukemia
KM12 colon = test system: KM12 colon
LOX IMVI melanoma = test system: LOX IMVI melanoma
M14 melanoma = test system: M14 melanoma
MALME-3M melanoma = test system: MALME-3M melanoma
MCF7 breast = test system: MCF7 breast
MDA-MB-231 breast = test system: MDA-MB-231 breast
MDA-MB-435 = test system: MDA-MB-435
MDA-N = test system: MDA-N
MOLT-4 leukemia = test system: MOLT-4 leukemia
NCI-H226 lung = test system: NCI-H226 lung
NCI-H23 lung = test system: NCI-H23 lung
NCI-H460 lung = test system: NCI-H460 lung
NCI-H522 lung = test system: NCI-H522 lung
NCI/ADR-RES ovarian = test system: NCI/ADR-RES ovarian
OVCAR-3 ovarian = test system: OVCAR-3 ovarian
OVCAR-4 ovarian = test system: OVCAR-4 ovarian
OVCAR-5 ovarian = test system: OVCAR-5 ovarian
OVCAR-8 ovarian = test system: OVCAR-8 ovarian
PC-3 prostate = test system: PC-3 prostate
RPMI-8226 leukemia = test system: RPMI-8226 leukemia
RXF 393 renal = test system: RXF 393 renal
SF-268 CNS = test system: SF-268 CNS
SF-295 CNS = test system: SF-295 CNS
SF-539 CNS = test system: SF-539 CNS
SK-MEL-2 melanoma = test system: SK-MEL-2 melanoma
SK-MEL-28 melanoma = test system: SK-MEL-28 melanoma
SK-MEL-5 melanoma = test system: SK-MEL-5 melanoma
SK-OV-3 ovarian = test system: SK-OV-3 ovarian
SN12C renal = test system: SN12C renal
SNB-19 CNS = test system: SNB-19 CNS
SNB-75 CNS = test system: SNB-75 CNS
SR leukemia = test system: SR leukemia
SW-620 colon = test system: SW-620 colon
T-47D breast = test system: T-47D breast
TK-10 renal = test system: TK-10 renal
U251 CNS = test system: U251 CNS
UACC-257 melanoma = test system: UACC-257 melanoma
UACC-62 melanoma = test system: UACC-62 melanoma
UO-31 renal = test system: UO-31 renal
A498 renal = test system: A498 renal

O=C(c1ccco1)N(Cc1ccco1)C(=S)Nc1ccccc1
TGI (786-0 renal): 22.7 µM | TGI (A549 NSCLC): > 76.8 µM | TGI (ACHN renal): 40.8 µM | TGI (BT-549 breast): 36.3 µM | TGI (CAKI-1 renal): 22.1 µM | TGI (CCRF-CEM leukemia): 18.7 µM | TGI (COLO 205 colon): 26.8 µM | TGI (DU-145 prostate): > 100 µM | TGI (EKVX NSCLC): > 96.5 µM | TGI (HCC-2998 colon): 98.1 µM | TGI (HCT-116 colon): 30.7 µM | TGI (HCT-15 colon): 36.2 µM | TGI (HL-60(TB) leukemia): 4.61 µM | TGI (HOP-62 NSCLC): > 100 µM | TGI (HOP-92 NSCLC): 30.3 µM | TGI (HS 578T breast): 72 µM | TGI (HT29 colon): 42.1 µM | TGI (IGROV1 ovarian): 42.2 µM | TGI (K-562 leukemia): 40.8 µM | TGI (KM12 colon): > 100 µM | TGI (LOX IMVI melanoma): 27.1 µM | TGI (M14 melanoma): 28.5 µM | TGI (MALME-3M melanoma): 44.2 µM | TGI (MCF7 breast): 49 µM | TGI (MDA-MB-231 breast): 41.1 µM | TGI (MDA-MB-435): 30.2 µM | TGI (MDA-N): 38.1 µM | TGI (MOLT-4 leukemia): 27.6 µM | TGI (NCI-H226 lung): > 100 µM | TGI (NCI-H23 lung): 38.1 µM | TGI (NCI-H460 lung): 99.8 µM | TGI (NCI-H522 lung): 37.7 µM | TGI (NCI/ADR-RES ovarian): 55.3 µM | TGI (OVCAR-3 ovarian): 59.7 µM | TGI (OVCAR-4 ovarian): 68.1 µM | TGI (OVCAR-5 ovarian): > 100 µM | TGI (OVCAR-8 ovarian): 59.7 µM | TGI (PC-3 prostate): > 100 µM | TGI (RPMI-8226 leukemia): 11.7 µM | TGI (RXF 393 renal): 31.9 µM | TGI (SF-268 CNS): 85.3 µM | TGI (SF-295 CNS): > 84.1 µM | TGI (SF-539 CNS): 15.4 µM | TGI (SK-MEL-2 melanoma): 42.9 µM | TGI (SK-MEL-28 melanoma): 33.8 µM | TGI (SK-MEL-5 melanoma): 35.9 µM | TGI (SK-OV-3 ovarian): > 100 µM | TGI (SN12C renal): 45.4 µM | TGI (SNB-19 CNS): > 100 µM | TGI (SNB-75 CNS): > 74.9 µM | TGI (SR leukemia): 13.2 µM | TGI (SW-620 colon): 32.2 µM | TGI (T-47D breast): 54.1 µM | TGI (TK-10 renal): > 77.4 µM | TGI (U251 CNS): 91 µM | TGI (UACC-257 melanoma): 57.6 µM | TGI (UACC-62 melanoma): 37.1 µM | TGI (UO-31 renal): 32.8 µM

CCOC(=O)C[C@@H]1C2(C=C[C@@]13CO3)OCC(C)(C)CO2
TGI (A498 renal): > 100 µM | TGI (A549 NSCLC): > 100 µM | TGI (BT-549 breast): > 100 µM | TGI (CAKI-1 renal): > 100 µM | TGI (CCRF-CEM leukemia): > 100 µM | TGI (COLO 205 colon): > 100 µM | TGI (DU-145 prostate): > 100 µM | TGI (EKVX NSCLC): > 100 µM | TGI (HCC-2998 colon): > 100 µM | TGI (HCT-116 colon): > 100 µM | TGI (HCT-15 colon): > 100 µM | TGI (HL-60(TB) leukemia): > 100 µM | TGI (HOP-62 NSCLC): > 100 µM | TGI (HOP-92 NSCLC): > 100 µM | TGI (HS 578T breast): > 100 µM | TGI (HT29 colon): > 100 µM | TGI (IGROV1 ovarian): > 100 µM | TGI (K-562 leukemia): > 100 µM | TGI (LOX IMVI melanoma): > 100 µM | TGI (M14 melanoma): > 100 µM | TGI (MALME-3M melanoma): > 100 µM | TGI (MCF7 breast): > 100 µM | TGI (MDA-MB-231 breast): > 100 µM | TGI (MDA-MB-435): > 100 µM | TGI (MDA-N): > 100 µM | TGI (MOLT-4 leukemia): > 100 µM | TGI (NCI-H226 lung): > 100 µM | TGI (NCI-H23 lung): > 100 µM | TGI (NCI-H460 lung): > 100 µM | TGI (NCI/ADR-RES ovarian): > 100 µM | TGI (OVCAR-3 ovarian): > 100 µM | TGI (OVCAR-4 ovarian): 97.4 µM | TGI (OVCAR-5 ovarian): > 100 µM | TGI (OVCAR-8 ovarian): > 100 µM | TGI (PC-3 prostate): > 100 µM | TGI (RXF 393 renal): > 100 µM | TGI (SF-268 CNS): > 100 µM | TGI (SF-295 CNS): > 100 µM | TGI (SF-539 CNS): > 100 µM | TGI (SK-MEL-2 melanoma): > 100 µM | TGI (SK-MEL-28 melanoma): > 100 µM | TGI (SK-MEL-5 melanoma): > 100 µM | TGI (SK-OV-3 ovarian): > 100 µM | TGI (SN12C renal): > 100 µM | TGI (SNB-75 CNS): > 100 µM | TGI (SR leukemia): > 100 µM | TGI (SW-620 colon): > 100 µM | TGI (T-47D breast): > 100 µM | TGI (TK-10 renal): > 100 µM | TGI (U251 CNS): > 100 µM | TGI (UACC-257 melanoma): > 100 µM | TGI (UACC-62 melanoma): > 100 µM | TGI (UO-31 renal): > 100 µM
